Results on three molecules are retold here after US6492180B2, “Non-invasive transdermal detection of analytes” (priority 1998, dated 2002).

Molecules are shown by their SMILES.

Data set [1] can be described thus: In vitro 3H-cocaine transport through swine skin, diffusion cells. The class given is in vitro ADME. As to conditions: donor 20 μCi/ml, receptor 50% NMP:H2O. The protocol: The receptor solution (50% NMP:H2O) was loaded in the lower chamber. Samples from the lower chamber (100 μl) were taken every hour and counted.
In data set [2] the test system is rats. Put plainly: Detection of 14C-caffeine administered to rats: tissue radioactivity and hydrogel extraction. As to conditions: 2.5 hours. In kind it is in vivo, rat. The protocol:
Rats were shaven and fasted for 24 hours prior to caffeine administration by intraperitoneal injection of ^14C labeled caffeine to the 600 gram rats. Each animal received approximately 16.7 μCi of ^14C caffeine via intraperitoneal injection of 0.5 mL of ethanol and water.
A 50% NMP:50% water-Pluronic® F127 hydrogel was applied to 2.4 cm diameter plastic disks. The disks were attached to a jacket which was affixed to the backs of the rats. The disks were removed after 2.5 hours. The gel was removed and counted. The rats were sacrificed and blood and tissue were removed for analysis from each animal. The tissue samples were placed in liquid scintillation vials with 1.5 mL of Soluene® (Packard Instruments, Downers Grove, Ill.) in order to dissolve the tissues for valid liquid scintillation counting.

The subject of data set [3] is rats. The data set can be described thus: In vivo extraction of lead through the skin of lead-fed rats with NMP hydrogel; blood lead. Set-up: species or system rat. As to conditions: Sprague Dawley rats, 750-1,000 ppm lead acetate in water supply, tail vein blood, for several weeks.
Experimental: Determinations of blood lead (Pb) concentrations were conducted by obtaining a blood sample from the tail vein of the animals and analyzing them using an ESA brand LeadCare® Analyzer (Chelmsford, Mass.).
At that time, a clear hydrogel formulation containing 1 gram of the copolymer Pluronic® F127 (BASP), and 2.0 mL of deionized water and 2.0 mL of N-methyl pyrrolidone (Pharmasolve®, ISP, Wayne, N.J.) was prepared. Approximately 1.2 grams of hydrogel was applied to a 2.4 cm diameter polypropylene plastic disk. The disks were attached to a jacket which was affixed to the backs of the rats. The disks were removed after 1 hour.
The mark [4] stands for this setting: rat, about 16.7 μCi 14C caffeine i.p.

Turning to `COC(=O)[C@H]1[C@@H](OC(=O)c2ccccc2)C[C@@H]2CC[C@H]1N2C` [^3H-cocaine, cocaine], the “flux through pig skin in vitro” value in data set [1] was found to be 0.00317 μg/cm^2/hr.
As for `Cn1c(=O)c2c(ncn2C)n(C)c1=O` [^14C caffeine, caffeine], in the data set with rats [2] (extracted through rat skin into 50% NMP:50% water-Pluronic F127 hydrogel), the “Radioactivity (mean dpm ± SD), NMP-Pluronic F127 Hydrogel” value turned out to be 58.82 dpm/cm^2/hr. In addition, in the data set with rats [2] (setting [4]), the “Radioactivity (mean dpm ± SD), Blood” value worked out at 87.24 dpm/μL; the “Radioactivity (mean dpm ± SD), Muscle” value stood at 64.30 ± 8.73 dpm/mg; the “Radioactivity (mean dpm ± SD), Skin” value is 52.15 ± 0.07 dpm/mg.
In turn, `CC(=O)[O-].CC(=O)[O-].[Pb+2]` [lead acetate] yielded a blood lead levels in the data set on rats [3] of 50 to 60 µg/dL.
